Assay results taken from patent US11439607B2 (Paracelsus Neuroscience I, LLC, priority 2016, dated 2022).
Like-named read-outs stand apart in the source and are kept apart here.

What was measured:
[1] = system: Bennett model; test: Bennett model - Paw pressure test; type: in vivo, rodent; settings: Senicapoc 100 mg/kg PO, 240 min after treatment
Method: (§1) Depending on the test, the percentage of activity was calculated from the mean value of the vehicle-treated animals and compared to naïve animals, control paw or cut-off value.

[2] = system: Healthy rats; test: Healthy rats - Paw pressure test; type: in vivo; settings: Senicapoc 100 mg/kg PO, 240 min after treatment
Method: as §1

[3] = system: Formalin test; test: Formalin test - Score; type: in vivo, rodent; settings: Senicapoc 100 mg/kg PO, 240 min after treatment
Method: as §1

[4] = biological target: T1, melatonin 1A receptors (Homo sapiens, UniProt P48039); test: Off target screen (CEREP panel) and dose response; type: binding
T1 construct: CEREP (contract screening)
T1 sequence (P48039 whole entry): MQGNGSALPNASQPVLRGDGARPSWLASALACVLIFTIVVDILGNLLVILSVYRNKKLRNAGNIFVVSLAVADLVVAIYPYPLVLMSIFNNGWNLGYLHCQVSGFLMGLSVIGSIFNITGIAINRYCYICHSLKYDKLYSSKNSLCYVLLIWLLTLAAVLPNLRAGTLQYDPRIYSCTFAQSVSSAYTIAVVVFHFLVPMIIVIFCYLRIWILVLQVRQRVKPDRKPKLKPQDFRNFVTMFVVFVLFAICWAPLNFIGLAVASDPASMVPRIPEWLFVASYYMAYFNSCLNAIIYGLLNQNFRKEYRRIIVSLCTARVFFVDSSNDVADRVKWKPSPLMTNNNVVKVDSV

[5] = system: CCI rats; test: Chronic constriction injury (CCI) model, von Frey paw withdrawal threshold; type: in vivo, rat; settings: 4 hours after dosing
Method: Peripheral nerve injury was performed according to the method of Bennett and Xie (Bennett and Xie, 1988), with paw withdrawal thresholds to Von Frey filament stimulation measured as described previously (Chaplan et al., 1994; Tal and Bennett, 1994).
In the first cohort of nerve injured rats, hindpaw mechanical hypersensitivity was evident by day 7 and maintained for the duration of the experiment (see FIG. 4A). […] Experiments were run using a simple cross-over design. Tactile hypersensitivity of rats was evaluated one day prior to drug testing. Drugs were allowed to wash out for one week at which time the mechanical hypersensitivity was reassessed. Rats were then randomly re-assigned to groups prior to the next arm of the study being run. In the final arm, tissue was collected from 3 animals from each group immediately after behavioral assessment of allodynia. Dosing of drugs, assessment of mechanical thresholds and collection of tissues were performed by individual experimenters all blinded to treatments.
All CCI data are presented as mean+/−S.E.M. and were analyzed using ANOVA followed by Fisher's PLSD post-hoc analysis (StatView, Cary, N.C.) when appropriate.

[6] = Rat screening pharmacokinetics: plasma, brain, CSF exposure; type: in vivo; settings: Screening PK, 10 mg/kg PO; for CSF / Free Brain / Free Plasma / concentration at 1 h / concentration at 4 h: 10 mg/kg; for concentration at 1 h / concentration at 4 h: po
Method: (§2) Male Sprague-Dawley rats (Crl:SD, Charles River) weighing 200-350 g were dosed to determine tissue exposure at 10 mg/kg p.o. (n=3) for screening pharmacokinetics (PK), and at 10, 30 and 100 mg/kg p.o. for the CCI studies (n=3 from each treatment group taken from the last arm of study). […] The rats were then decapitated and trunk blood was collected to in K3EDTA containing tubes. Plasma samples were generated by centrifugation (3500×g), and stored frozen at −20° C. until bioanalysis. The brains were harvested immediately following blood collection and stored frozen until bioanalysis at −20° C. For CCI animals, the plasma and brain harvests as described for the screening PK, although the tissue collection was initiated after the behavioral assessment was completed, approximately 4 hours 15 minutes after dosing. For spinal column harvest, a 20-gauge needle on a 10 ml syringe filled with cold saline was inserted into the spinal cord. The saline was used to flush the spinal column out. The spinal column tissues were then stored frozen at −20° C. prior to exposure measurements.
(§3) Prior to analysis, the brain and spinal cord samples were thawed at room temperature, weighed and homogenized using a homogenizing solution (IPA/H2O/DMSO; 30:50:20) at a ratio of 3/1 (ml/g) to generate tissue homogenates. An aliquot of 50 μl plasma, or 50 μl brain and spinal cord homogenates is mixed with 150 μl of a DMSO/ACN (20:80) solution that contains an internal standard (50 ng/ml). The diluted plasma, brain and spinal cord sample is then centrifuged (˜500 g for 15 min at 10° C.), supernatant is removed and then injected (10 μl) onto LC/MS/MS system for analysis. An Atlantis T3 column 2.6μ C18, 50×2.1 mm (Waters, Mass.) was used for analytical separation of the acid. A 6-minute mobile phase gradient was employed with mobile phase A (0.1% formic acid in water) ramping down from 99% to 1% (0-4 minutes), and then ramping back up to 99% (4-6 minutes), while ramping up solvent B (1% formic acid in ACN), from 1% to 99% (0-4 minutes), and then ramping down to 1% (4-6 minutes). Spectra was acquired in positive SRM mode with the parent mass of 324 and a daughter ion of 228.

[7] = Plasma, brain and spinal cord exposure in CCI rats; type: in vivo, rat; settings: for Kp at 4 h / concentration at 4 h: male, Sprague-Dawley, rat; for concentration at 4 h: po
Method: as §2, §3

For `NC(=O)C(c1ccccc1)(c1ccc(F)cc1)c1ccc(F)cc1` [Senicapoc], the “% of activity vs. vehicle” value [1] was 69%, the “% of activity vs. vehicle” value [2] was −12% and the “% of activity vs. vehicle” value ([3]; early phase) was 14%. For the same molecule, the “% of activity vs. vehicle” value ([3]; late phase) was 8%, the inhibition at 10 µM ([4]; 10 μM) was > 50% and the IC50 ([4]; full dose response curve, functional testing) was 1700 nM. The “Reversal of mechanical hypersensitivity (tactile allodynia)” value ([5]; 100 mg/kg p.o.) was 48%, the “Effect on injury-induced nociceptive behaviors at the low doses” value ([5]; low doses (10, 30 mg/kg p.o.)) was “lack of significant effect” and the CSF ([6]; 1 h, mean ± SD) was 25 ± 16 nM. For the same molecule, the “Free Brain” value ([6]; 1 h, UBBr = 0.008) was 37 ± 16 nM, the “Free Plasma” value ([6]; 1 h, UBP = 0.027) was 17 ± 9 nM and the CSF ([6]; 4 h, mean ± SD) was 121 ± 62 nM. For the same molecule, the “Free Brain” value ([6]; 4 h, UBBr = 0.008) was 136 ± 50 nM, the “Free Plasma” value ([6]; 4 h, UBP = 0.027) was 65 ± 22 nM and the concentration at 1 h ([6]; male, Sprague-Dawley, rat, brain, 1 h, mean ± SD, read-out: Brain) was 4660 ± 1990 nM. It also gave a concentration at 1 h ([6]; male, Sprague-Dawley, rat, brain, 1 h, UBBr = 0.008, read-out: Free Brain) of 37 nM, a concentration at 4 h ([6]; male, Sprague-Dawley, rat, brain, 4 h, mean ± SD, read-out: Brain) of 16900 ± 6040 nM and a concentration at 4 h ([6]; male, Sprague-Dawley, rat, brain, 4 h, UBBr = 0.008, read-out: Free Brain) of 136 nM. The Kp at 1 h ([6]; male, Sprague-Dawley, rat, brain, 1 h, read-out: Free Brain/Free Plasma) was 2.2, the Kp at 4 h ([6]; male, Sprague-Dawley, rat, brain, 4 h, read-out: Free Brain/Free Plasma) was 2.1 and the concentration at 1 h ([6]; male, Sprague-Dawley, rat, plasma, 1 h, mean ± SD, read-out: Plasma) was 637 ± 322 nM. For the same molecule, the concentration at 1 h ([6]; male, Sprague-Dawley, rat, plasma, 1 h, UBP = 0.027, read-out: Free Plasma) was 17 nM, the concentration at 4 h ([6]; male, Sprague-Dawley, rat, plasma, 4 h, mean ± SD, read-out: Plasma) was 2390 ± 748 nM and the concentration at 4 h ([6]; male, Sprague-Dawley, rat, plasma, 4 h, UBP = 0.027, read-out: Free Plasma) was 65 nM. The concentration at 1 h ([6]; male, Sprague-Dawley, rat, 1 h, mean ± SD, read-out: CSF) was 25 nM, the concentration at 4 h ([6]; male, Sprague-Dawley, rat, 4 h, mean ± SD, read-out: CSF) was 121 nM and the “Spinal Cord” value ([7]; 10 mg/kg PO, 4 h, LLQ 773 nM) was “<LLQ^γ”. The Plasma ([7]; 10 mg/kg PO, 4 h, n = 1 (2 samples <LLQ 773 nM)) was 782^£ nM, the “Free Plasma” value ([7]; 10 mg/kg PO, 4 h, n = 1, UBP = 0.027) was 21^£ nM and the Kp at 4 h ([7]; brain, 10 mg/kg PO, read-out: Free Brain/Free Plasma) was 1.1 ± 0.1. For the same molecule, the Kp at 4 h ([7]; brain, 30 mg/kg PO, read-out: Free Brain/Free Plasma) was 0.9 ± 0.1, the Kp at 4 h ([7]; brain, 100 mg/kg PO, read-out: Free Brain/Free Plasma) was 1 ± 0.2 and the concentration at 4 h ([7]; brain, 10 mg/kg, 10 mg/kg PO, UBBr = 0.008, read-out: Free Brain) was 22 ± 1 nM. For the same molecule, the concentration at 4 h ([7]; brain, 10 mg/kg, 10 mg/kg PO, mean ± SD, read-out: Brain) was 2770 ± 380 nM, the concentration at 4 h ([7]; brain, 30 mg/kg, 30 mg/kg PO, UBBr = 0.008, read-out: Free Brain) was 51 ± 16 nM and the concentration at 4 h ([7]; brain, 30 mg/kg, 30 mg/kg PO, mean ± SD, read-out: Brain) was 6420 ± 1960 nM. The concentration at 4 h ([7]; brain, 100 mg/kg, 100 mg/kg PO, UBBr = 0.008, read-out: Free Brain) was 106 ± 21 nM, the concentration at 4 h ([7]; brain, 100 mg/kg, 100 mg/kg PO, mean ± SD, read-out: Brain) was 13300 ± 2620 nM and the concentration at 4 h ([7]; plasma, 30 mg/kg, 30 mg/kg PO, UBP = 0.027, read-out: Free Plasma) was 56 ± 12 nM. The concentration at 4 h ([7]; plasma, 30 mg/kg, 30 mg/kg PO, mean ± SD, read-out: Plasma) was 2060 ± 452 nM, the concentration at 4 h ([7]; plasma, 100 mg/kg, 100 mg/kg PO, UBP = 0.027, read-out: Free Plasma) was 103 ± 3 nM and the concentration at 4 h ([7]; plasma, 100 mg/kg, 100 mg/kg PO, mean ± SD, read-out: Plasma) was 3800 ± 93 nM. For the same molecule, the Kp at 4 h ([7]; spinal cord, 30 mg/kg PO, read-out: Free Spinal Cord/Free Plasma) was 0.8 ± 0.6, the Kp at 4 h ([7]; spinal cord, 100 mg/kg PO, read-out: Free Spinal Cord/Free Plasma) was 0.7 ± 0.3 and the concentration at 4 h ([7]; spinal cord, 30 mg/kg, 30 mg/kg PO, brain free fraction 0.008 used, read-out: Free Spinal Cord) was 38 ± 17 nM. For the same molecule, the concentration at 4 h ([7]; spinal cord, 30 mg/kg, 30 mg/kg PO, mean ± SD, read-out: Spinal Cord) was 3400 ± 2740 nM, the concentration at 4 h ([7]; spinal cord, 100 mg/kg, 100 mg/kg PO, brain free fraction 0.008 used, read-out: Free Spinal Cord) was 95 ± 17 nM and the concentration at 4 h ([7]; spinal cord, 100 mg/kg, 100 mg/kg PO, mean ± SD, read-out: Spinal Cord) was 11900 ± 2180 nM.
